We go through 38 compounds from patent US20160039825A1 (BIOGEN MA INC., priority 2013, published 2016).

The IC50 is the midpoint of a concentration-inhibition curve. The low end stands for higher potency, the high end for lower potency.

Each structure is given as a SMILES string.

The target of the test is T1, Human ATX protein (Homo sapiens, UniProt Q13822).
T1 construct: made in house
Put plainly: Autotaxin (ATX) assay, FRET with FS-3 substrate. Conditions: upper bound bins (no greater than 100, 250 or 500 nM); FS-3 2 μM, ATX 1.0 μg/mL. Type of test: biochemical. The text has this:
ATX (Autotaxin) is a 125 KDa glycoprotein with lysophospholipase D (LPLD) activity that generates the bioactive lipid lysophosphatidic acid (LPA) from lysophosphatidylcholine (LPC). The ATX biochemical assay utilizes a FRET (fluorescence resonance energy transfer) technology platform. The fluorescence signal of FRET substrate FS-3 is quenched due to intra-molecular FRET of a fluorophore to a non-fluorescing quencher (Ferguson, C. G., et al., Org Lett. 2006 May 11; 8(10): 2023-2026, which is incorporated by reference in its entirety). ATX catalyzes the hydrolysis of the substrate which separates the dabsyl quencher from the fluorescein reporter, which becomes fluorescent. The reaction is monitored by a SpectraMax M5 (Molecular Devices, Sunnyvale, Calif.) with at excitation wavelength 485 nm and emission wavelength […].
Fatty acid free-BSA (Sigma A8806): 10 mg/mL in H2O, stored at 4° C.
2×ATX assay buffer: 100 mM Tris, 280 mM NaCl, 10 mM KCl, 2 mM CaCl2, 2 mM MgCl2, pH 7.4.
Human ATX protein: expressed and purified in house. Stored at −80° C.
Substrate FS-3 (Echelon, L-2000): 100 μg in 77.74 μL H2O (1 mM stock), stored at −20° C.
384-well flat bottom plates—Corning #3575.
Compound dilution—All compounds were provided at 10 mM in 100% DMSO. In the first well, 2 μL of 10 mM compound was added to 78 μL of DMSO (1:40 dilution). In subsequent wells 3-fold dilution (total 10 dilutions) were performed.
1×ATX assay buffer was made up with a final concentration of 1 mg/mL fatty acid free-BSA using 2×ATX assay buffer, 10 mg/ml fatty acid free-BSA and ddH2O.
ATX protein was diluted with 1×ATX assay buffer to a concentration of 1.32 μg/mL (1.32×). 38 μL was added per well to the assay plate. The final concentration of ATX in the reaction as 1.0 μg/mL.
2 μL per well of compounds was transferred to provide the desired concentration. The plate was centrifuged, then incubated at room temperature for 30 minutes on the shaker.
FS-3 was diluted with 1×ATX assay buffer to a concentration of FS-3 of 10 μM (5×). Then, 10 μL was added per well to the assay plate. The final concentration of FS-3 in the reaction was 2 μM. The plate was centrifuged. The plate was kept shaking at room temperature for 2 hours. Because FS-3 substrate is light sensitive, plates were kept covered and protected from light.
Fluorescence was measured using SpectraMax M5 (excitation at 485 nm/emission at 538 nm, top read).
In the case of `O=C(O)C1CC2CCCC(C1)N2C(=O)c1cc2n(n1)CCN(C(=O)OCc1cc(F)cc(Cl)c1)C2` (centres unmarked) [Example 46, 9-(5-(((3-Chloro-5-fluorobenzyl)oxy)carbonyl)-4,5,6,7-tetrahydropyrazolo[1,5-a]pyrazine-2-carbonyl)-9-azabicyclo[3.3.1]nonane-3-carboxylic acid], the IC50 is no more than 100 nM.
`CN1CCN(C(=O)c2nn3c(c2F)CN(C(=O)OCc2cc(Cl)cc(C(F)(F)F)c2)CCC3)CC1` [Example 515] returned an IC50 of no more than 100 nM.
`CCOC(=O)c1cc2n(c1)CCCN(C(=O)OCc1cc(Cl)cc(Cl)c1)C2` [Example 99, 2-(3,5-Dichlorobenzyl) 8-ethyl 4,5-dihydro-1H-pyrrolo[1,2-a][1,4]diazepine-2,8(3H)-dicarboxylate]: the IC50 was no more than 500 nM.
`O=C(O)C1CCCN(C(=O)c2cc3n(n2)CCCN(C(=O)OCc2cc(Cl)cc(Cl)c2)C3)C1` (centres unmarked) [Example 88, 1-(5-(((3,5-dichlorobenzyl)oxy)carbonyl)-5,6,7,8-tetrahydro-4H-pyrazolo[1,5-a][1,4]diazepine-2-carbonyl)piperidine-3-carboxylic acid] had an IC50 of no more than 250 nM.
The compound `CCOC(=O)c1cc2n(c1)CCCN(C(=O)OCc1cc(C(F)(F)F)cc(C(F)(F)F)c1)C2` [Example 106, 2-(3,5-Bis(trifluoromethyl)benzyl) 8-ethyl 4,5-dihydro-1H-pyrrolo[1,2-a][1,4]diazepine-2,8(3H)-dicarboxylate] registered an IC50 of no more than 100 nM.
Compound `CCC1CN(C(=O)c2cc3n(n2)CCCN(C(=O)OCc2cc(Cl)cc(C(F)(F)F)c2)C3)CCN1` (centres unmarked) [Example 206] yielded an IC50 of no more than 100 nM.
`CC1C=C(c2cc3n(n2)CCCN(C(=O)OCc2cc(C(F)(F)F)cc(C(F)(F)F)c2)C3)CC(C)N1` (centres unmarked) [Example 378] registered an IC50 of no more than 100 nM.
For `CN1C2CCCC1CN(C(=O)c1cc3n(n1)CCCN(C(=O)OCc1cc(Cl)cc(C(F)(F)F)c1)C3)C2` [Example 217], the IC50 was no more than 100 nM.
To `O=C(OCc1cc(C(F)(F)F)cc(C(F)(F)F)c1)N1CCCn2nc(N3CCCNCC3)cc2C1` [Example 342] belongs no more than 100 nM; to `O=C(OCc1cc(Cl)cc(C(F)(F)F)c1)N1CCCn2nc(C(=O)N3CC4CNCC4C3)cc2C1` (centres unmarked) [Example 170], no more than 100 nM.
To `CC(c1cc2n(n1)CCCN(C(=O)OCc1cc(C(F)(F)F)cc(C(F)(F)F)c1)C2)N1CCC(F)CC1` (centres unmarked) [Example 512] belongs no more than 100 nM.
Next, `CC1COCC(C)N1CC(=O)c1cc2n(n1)CCCN(C(=O)OCc1cc(Cl)cc(C(F)(F)F)c1)C2` (centres unmarked) [Example 261]: no more than 100 nM.
For the compound `CC1(C)CN(C(=O)c2cc3n(n2)CCCN(C(=O)OCc2cc(Cl)cc(C(F)(F)F)c2)C3)CCN1` [Example 200], the IC50 was no more than 100 nM.
`O=C(OCc1cc(Cl)cc(C(F)(F)F)c1)N1CCCn2nc(C(=O)N3CC4CCC(C3)N4)cc2C1` [Example 209] came in with an IC50 of no more than 100 nM.
Next, `O=C(O)c1nn2c(c1Br)CN(C(=O)OCc1cc(C(F)(F)F)cc(C(F)(F)F)c1)CCC2` [Example 115, 5-(((3,5-Bis(trifluoromethyl)benzyl)oxy)carbonyl)-3-bromo-5,6,7,8-tetrahydro-4H-pyrazolo[1,5-a][1,4]diazepine-2-carboxylic acid]: no more than 100 nM.
To `O=C(OCc1cc(C(F)(F)F)cc(C(F)(F)F)c1)N1CCCn2nc(-c3ccncc3)cc2C1` [Example 367] belongs no more than 100 nM; to `CN1CCCN(c2cc3n(n2)CCCN(C(=O)OCc2cc(C(F)(F)F)cc(C(F)(F)F)c2)C3)CC1` [Example 355], no more than 100 nM.
`O=C(OCc1cc(Cl)cc(C(F)(F)F)c1)N1CCn2nc(C(=O)N3CCC(O)CC3)cc2C1` [Example 479] came in with an IC50 of no more than 100 nM.
Regarding `CN1CCN(C(=O)c2cc3n(n2)CCCN(C(=O)OCc2cc(Cl)cc(C(F)(F)F)c2)C3)C2(CCC2)C1` [Example 174], the IC50 is no more than 100 nM.
`CC(O)c1cc2n(n1)CCCN(C(=O)OCc1cc(C(F)(F)F)cc(C(F)(F)F)c1)C2` (centres unmarked) [Example 146, 3,5-Bis(trifluoromethyl)benzyl 2-(1-hydroxyethyl)-7,8-dihydro-4H-pyrazolo[1,5-a][1,4]diazepine-5(6H)-carboxylate] registered an IC50 of no more than 100 nM.
Take `O=C(OCc1cc(C(F)(F)F)cc(C(F)(F)F)c1)N1CCCn2nc(NC3CC4CCC(C3)N4)cc2C1` (centres unmarked) [Example 318]: the IC50 is no more than 100 nM.
For the compound `O=C(OCc1cc(Cl)cc(C(F)(F)F)c1)N1CCCn2nc(C(=O)N3CCC4CNCC43)cc2C1` (centres unmarked) [Example 165], the IC50 is no more than 100 nM.
In the case of `CC(=O)c1cc2n(n1)CCCN(C(=O)OCc1cc(C(F)(F)F)cc(C(F)(F)F)c1)C2` [Example 145, 3,5-Bis(trifluoromethyl)benzyl 2-acetyl-7,8-dihydro-4H-pyrazolo[1,5-a][1,4]diazepine-5(6H)-carboxylate], the IC50 is no more than 100 nM.
Next, `O=C(OCc1cc(C(F)(F)F)cc(C(F)(F)F)c1)N1CCCn2nc(S(=O)(=O)N3CCCCC3)cc2C1` [Example 304]: no more than 100 nM.
Regarding `O=C(OCc1cc(Cl)cc(C(F)(F)F)c1)N1CCCn2nc(C(=O)N3CCNCC3)cc2C1` [Example 158, 3-chloro-5-(trifluoromethyl)benzyl 2-(piperazine-1-carbonyl)-7,8-dihydro-4H-pyrazolo[1,5-a][1,4]diazepine-5(6H)-carboxylate], the IC50 is no more than 100 nM.
For `C[C@H]1CNC[C@H](C)N1C(=O)c1cc2n(n1)CCCN(C(=O)OCc1cc(C(F)(F)F)cc(C(F)(F)F)c1)C2` [Example 247], the half-inhibitory concentration (IC50) is no more than 100 nM.
`CNC1CN(C(=O)c2cc3n(n2)CCCN(C(=O)OCc2cc(C(F)(F)F)cc(C(F)(F)F)c2)C3)C1` [Example 242]: the IC50 was no more than 100 nM.
As for `O=C(NC1CCCCC1)c1cc2n(n1)CCN(C(=O)OCc1cc(C(F)(F)F)cc(C(F)(F)F)c1)C2` [Example 492], the IC50 is no more than 100 nM.
In the case of `O=C(O)C1CN(C(=O)c2cc3n(n2)CCCN(C(=O)OCc2cc(C(F)(F)F)cc(C(F)(F)F)c2)C3)CCN1` (centres unmarked) [Example 192], the IC50 is no more than 100 nM.
Turning to `NC(=O)c1cc2n(n1)CCCN(C(=O)OCc1cc(Cl)cc(Cl)c1)C2` [Example 102, 3,5-Dichlorobenzyl 2-carbamoyl-7,8-dihydro-4H-pyrazolo[1,5-a][1,4]diazepine-5(6H)-carboxylate], the half-maximal inhibitory concentration (IC50) is no more than 100 nM.
`CN1CCC(Nc2cc3n(n2)CCCN(C(=O)OCc2cc(C(F)(F)F)cc(C(F)(F)F)c2)C3)CC1` [Example 352, 3,5-bis(trifluoromethyl)benzyl 2-((1-methylpiperidin-4-yl)amino)-7,8-dihydro-4H-pyrazolo[1,5-a][1,4]diazepine-5(6H)-carboxylate]: the IC50 was no more than 250 nM.
To `CC1(C)CN(c2cc3n(n2)CCCN(C(=O)OCc2cc(C(F)(F)F)cc(C(F)(F)F)c2)C3)CCN1` [Example 340] belongs no more than 100 nM.
`O=C(OCc1cc(Cl)cc(C(F)(F)F)c1)N1CCCn2nc(C(O)C(F)(F)F)cc2C1` (centres unmarked) [Example 286, 3-chloro-5-(trifluoromethyl)benzyl 2-(2,2,2-trifluoro-1-hydroxyethyl)-7,8-dihydro-4H-pyrazolo[1,5-a][1,4]diazepine-5(6H)-carboxylate] yielded an IC50 of no more than 100 nM.
Compound `O=C(O)C1CC2CCCC(C1)N2C(=O)c1cc2n(n1)CCCN(C(=O)OCc1cc(F)cc(F)c1)C2` (centres unmarked) [Example 62, 9-(5-((3,5-Trifluorobenzyloxy)carbonyl)-5,6,7,8-tetrahydro-4H-pyrazolo[1,5-a][1,4]diazepine-2-carbonyl)-9-aza-bicyclo[3.3.1]nonane-3-carboxylic acid] showed an IC50 of no more than 100 nM.
`CC(NC1CC1)c1cc2n(n1)CCCN(C(=O)OCc1cc(C(F)(F)F)cc(C(F)(F)F)c1)C2` (centres unmarked) [Example 508]: the IC50 is no more than 100 nM.
`O=C(NC1CCCCC1)c1cc2n(n1)CCCN(C(=O)OCc1cc(Cl)cc(Cl)c1)C2` [Example 17, 3,5-Dichlorobenzyl 2-(cyclohexylcarbamoyl)-7,8-dihydro-4H-pyrazolo[1,5-a][1,4]diazepine-5(6H)-carboxylate]: the IC50 was no more than 100 nM.
For `C#CCCCCNC(=O)c1cc2n(n1)CCCN(C(=O)OCc1cc(C(F)(F)F)cc(C(F)(F)F)c1)C2` [Example 190], the IC50 is no more than 100 nM.
Compound `CCC1CC(Nc2cc3n(n2)CCCN(C(=O)OCc2cc(C(F)(F)F)cc(C(F)(F)F)c2)C3)CCN1` (centres unmarked) [Example 323] came in with an IC50 of no more than 100 nM.
